These results are taken from PMC5648515, “A novel small molecule inhibitor of p32 mitochondrial protein overexpressed in glioma” (Journal of Translational Medicine, 2017).

In this assay the target is T1, p32 (C1qBP) (Homo sapiens, UniProt Q07021).
T1 construct: Human recombinant p32 (OriGene)
T1 sequence (Q07021 74-282): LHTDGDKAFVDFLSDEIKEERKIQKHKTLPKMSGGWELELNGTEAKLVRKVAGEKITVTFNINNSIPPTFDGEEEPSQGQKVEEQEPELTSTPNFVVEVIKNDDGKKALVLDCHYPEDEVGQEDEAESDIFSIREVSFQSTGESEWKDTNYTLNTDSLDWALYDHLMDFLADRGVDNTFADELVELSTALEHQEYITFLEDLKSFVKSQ
As to the kind of experiment: fluorescence polarization competition with 5-FAM-labelled cyclic LyP-1 peptide; protein thermal shift with […] M36. The format is binding.

Molecules are shown by their SMILES.

Turning to `O=C(NCCCNC(=O)Nc1cccc(C2=NCCN2)c1)Nc1cccc(C2=NCCN2)c1` [M36], the “p32 thermal shift stability change” value is recorded as “P32 protein stability was altered by M36 as observed by a shift in the melting curve of the protein”.
